# Laboratory results reported in patent publication US4959363A, “Quinolonecarboxamide compounds, their preparation and use as antivirals” (Sterling Drug Inc., priority 1989, dated 1990).
# Columns and labels:
# [1] = test system: Vero (African Green Monkey Kidney) cells; assay: In vitro maximum tolerated dose (MTL), Vero cells; format: cell-based
# [2] = set-up: species or system albino mice; details: mouse
# [3] = test system: herpes simplex virus; assay: In Vivo - Intravaginal Herpes Virus Infection in Mice; set-up: species or system albino mice; details: Mus musculus, 336 h, oral or intraperitoneal, b.i.d. 5 days, NA = Not active at dose levels tested, read-out: In Vivo MED (Minimum effective dose)
# Experimental: In Vivo - Intravaginal Herpes Virus Infection in Mice
# Approximately 1 hr. prior to infection, the vaginas of 15 gm albino mice were swabbed with cotton saturated with 0.1 N NaOH to remove vaginal secretions and to irritate the vaginal mucosa slightly. At the proper time, 0.05 ml of an appropriate dose of herpes simplex virus was placed deep in the vagina. Starting 2.5 hrs. prior to infection, the mice were medicated either orally or intraperitoneally. Medication was continued daily for a total of 5 days on a b.i.d. regimen. The test was terminated after 14 days. A comparison of the number of surviving mice and/or extension of survival was made at the end of the test. The criterion for activity was a statistically significant extension of the average survival time of the test group over that of the control mice in two experiments.
# [4] = In vitro maximum tolerated dose (MTL), Vero cells; format: cell-based, African Green Monkey; details: monkey, vero cells, In Vitro
Compound,"In Vitro MTL (Maximum tolerated dose) ([1]; In Vitro, Vero cells, 4320 min)",In Vivo MTL (Maximum tolerated dose) [2],minimal effective dose [3] [mg/kg/day],MNTC at 72 h [4] [µg/mL],"In Vitro MTL (Maximum tolerated dose) ([1]; monkey, vero cells, 72 h)"
"NC(=O)c1cn(-c2ccccc2)c2cc(-c3ccncc3)ccc2c1=O [Example 45e, 1,4-Dihydro-4-oxo-1-phenyl-7-(4-pyridinyl)-3-quinolinecarboxamide]",> 6.25,50,25,–,–
"NC(=O)c1cn(-c2ccncc2)c2cc(-c3ccncc3)ccc2c1=O [Example 10, 1,4-Dihydro-4-oxo-1,7-di(4-pyridinyl)-3-quinolinecarboxamide]",–,75,50 to 75,> 200,–
"NC(=O)c1cn(-c2ccc(F)cc2)c2cc(-c3ccncc3)ccc2c1=O [Example 1h, 1-(4-fluorophenyl)-1,4-dihydro-4-oxo-7-(4-pyridinyl)-3-quinolinecarboxamide]",–,50-100,12.5 to 25,> 3.1,–
"CCn1cc(C(=O)NC)c(=O)c2ccc(-c3ccncc3)cc21 [Example 28, 1-Ethyl-1,4-dihydro-N-methyl-4-oxo-7-(4-pyridinyl)-3quinolinecarboxamide]",–,50,50,> 25,–
"CCn1cc(C(N)=O)c(=O)c2ccc(-c3ccncc3)cc21 [Example 6, 1-Ethyl-1,4-dihydro-4-oxo-7-(4-pyridinyl)-3-quinolinecarboxamide]",–,50,50,12.5,–
"1,4-Dihydro-1-(4-fluorophenyl)-7-(3-methyl-5-thiazolyl)-4-oxo-3-quinolinecarboxamide [Example 37d]",–,> 100,–,–,> 100
"NC(=O)c1cn(-c2ccc(Cl)c(Cl)c2)c2cc(-c3ccncc3)ccc2c1=O [Example 14, 1-(3,4-Dichlorophenyl)-1,4-dihydro-4-oxo-7-(4-pyridinyl)-3-quinolinecarboxamide]",–,100,50,> 12.5,–
"CCN(CC)CNC(=O)c1cn(-c2ccc(F)cc2)c2cc(-c3ccncc3)ccc2c1=O [Example 3, N-(Diethylaminomethyl)-1-(4-fluorophenyl)-1,4-dihydro-4-oxo-7-(4-pyridinyl)-3-quinolinecarboxamide]",–,100,50,12.5,–
"NC(=O)c1c(N)n(-c2ccc(F)cc2)c2cc(-c3ccncc3)ccc2c1=O [Example 41c, 2-Amino-1,4-dihydro-1-(4-fluorophenyl)-4-oxo-7-(4-pyriridinyl)-3-quinolinecarboxamide]",–,100,50,> 100,–
"NC(=O)c1cn(-c2ccc(F)cc2)c2cc(-c3cc[n+]([O-])cc3)ccc2c1=O [Example 2, 1-(4-Fluorophenyl)-1,4-dihydro-4-oxo-7-(N-oxide-4-pyridinyl)-3-quinolinecarboxamide]",–,100,25,> 12.5,–
